Measurements reported in patent publication EP4663632A1, “COMPOUNDS USEFUL FOR THE MODULATION OF THE ACTIVITY OF STING” (Sulis Therapeutics ApS, priority 2024, dated 2025).
“Also recorded” adds a separate entry of the source.

Tests used:
Format in all cases: cell-based
[1] = molecular target: T1, STING (Mus musculus, UniProt Q3TBT3); test: Western Blot analysis for STING degradation in mouse RAW264.7 cells; design: endogenous in cells; host or cells: RAW264.7 mouse cells; conditions: 19.5nM to 10 µM, 24 hours
T1 sequence (Q3TBT3 1-378): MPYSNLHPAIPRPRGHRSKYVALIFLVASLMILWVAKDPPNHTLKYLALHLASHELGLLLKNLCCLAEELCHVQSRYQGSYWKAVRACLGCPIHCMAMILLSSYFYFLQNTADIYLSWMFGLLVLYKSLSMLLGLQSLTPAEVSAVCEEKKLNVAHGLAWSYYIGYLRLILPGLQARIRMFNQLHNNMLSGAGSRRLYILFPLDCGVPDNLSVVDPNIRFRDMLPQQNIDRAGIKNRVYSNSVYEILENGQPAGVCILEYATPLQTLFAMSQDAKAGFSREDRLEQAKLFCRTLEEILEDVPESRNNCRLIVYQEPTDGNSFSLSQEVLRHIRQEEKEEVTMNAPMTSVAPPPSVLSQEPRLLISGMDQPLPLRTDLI
Method: To assess STING degradation in RAW264.7 cells, cells were seeded at a density of 60.000 cells/well in 24-well Nunclon Delta surface treated culture plate in RPMI-1640 growth medium (supplemented with 10% FBS, 1% Pen-strep). Cells were incubated over-night at 37°C 5% CO2 to allow adhesion. Next day growth medium was renewed and a 5x concentration of test compounds (2.5% DMSO) diluted in growth medium were added to the appropriate well. Final DMSO concentration was 0.5%. Cells were treated with a titration of test compound from 19.5nM to 10 µM 24 hours prior to cells lysis and subsequently analyzed by WB using anti-STING (1:1000) and anti-VCL (1:1000) antibodies. Controls included UT (DMSO) and 1.8µM diABZI treated cells.
(§1) For cell lysis, western blotting and data analysis, the methods described above for HFF-1 cells were applied.

[2] = molecular target: T2, STING (Homo sapiens, UniProt Q86WV6); test: Western Blot analysis of STING phosphorylation in human fibroblast cells (STING agonism); design: host or cells: HFF-1 human foreskin fibroblasts; conditions: 7.2µM-3.6nM; 24h
Method: Human fibroblast were treated with a titration of E22, E9, E14 and E16 (7.2µM-3.6nM) for 24h prior to cell lysis and subsequently total STING, pSTING and Vinculin were assessed by western blot using rabbit anti-STING (1:1000), anti-pSTING (1:1000), anti-Vinculin (1:1000) and 2nd anti-rabbit-HRP (1:10.000) or anti-mouse-HRP (1:7500). Proteins were visualized using ImageQuant800. Control cells included untreated cells and cells treated with 300nM diABZI C3.

[3] = molecular target: T2, STING; test: Western Blot analysis for STING degradation in H596 cells; conditions: 24h; for STING degradation (Western Blot, Figure 1): H596 cells, 0.22 µM, 0.67 µM, 2 µM and 6 µM
Method: For cell lysing for Western Blot analysis cell culture plates were brought to ice, supernatant was removed by aspiration and cells washed 2x in ice-cold DPBS. Cells were lysed in 65 µL of RIPA buffer supplemented with cOmplete ULTRA Tablets protease inhibitor cocktail, PIERCE Phosphatase inhibitor mini tablet, Benzonase and 10mM NaF for 20 min on ice. Lysates were collected, cleared by centrifugation (13000xg for 10 min at 4°C). Samples were either analysed directly or stored at -80°C until analysis.
For Western Blotting, total protein concentration in each lysate was determined using PIERCE Gold BCA Assay kit according to manufactures protocol. 6 µg of total protein was mixed with 2x Laemmli buffer containing DTT, boiled for 5 min at 95°C, cooled on ice and loaded into each well of a 4-20% Criterion TGX gel. Proteins were separated by electrophoresis, by running for 1h at 150V. After separation proteins were blotted onto a PVDF membrane by semi-dry transfer using Trans-Blot turbo system at pre-defined BioRad MIDI protocol; 25V, 1A (fixed) for 30 min. Membranes were blocked for 1h in 5% skim milk in TBS-T20 on a rocker at room temperature followed by washing and exposure to primary antibodies against human STING 1:1000 (Cell Signalling, #13647) or loading controls Vinculin 1:1000 (Cell Signalling, #13901) or beta-Actin 1:10000 (Sigma, A5441) all diluted in 5% BSA in TBS-T20. Membranes were probed over night at 4°C on a rocker. Membranes were washed 3x in TBS-T20 followed by exposure to secondary HRP-conjugated anti-rabbit antibody or HRP-conjugated anti-mouse antibody diluted 1:10000 in 5% skim milk in TBS-T20 as appropriate. Membranes were incubated for 1h at room temperature on a rocker, then washed 3x in TBS-T20.
For generating DC50 values, the intensity of individual bands was measured using imaged and expression levels were calculated as a ratio of STING intensities vs. Reference protein intensities and normalized to DMSO control. The normalized ratios were plotted on a XY curve in GraphPad Prism where DC50 was estimated using a 4-parameter non-linear regression fitting curve.
(§2) To assess STING degradation in H596 cells (ATCC, HTB-178) cells were seeded at a density of 100.000 cells/well in 24-well Nunclon Delta surface treated culture plate in RPMI-1640 growth medium (supplemented with 10% FBS, 1% Pen-strep). Cells were incubated over-night at 37°C 5% CO2 to allow adhesion. Next day growth medium was renewed and a 5x concentration of test compounds (2.5% DMSO) diluted in growth medium were added to the appropriate well. Final DMSO concentration was 0.5%. Cell culture plates were returned to the incubator for additional 24h. Final test compound concentrations were 0.22 µM, 0.67 µM, 2 µM and 6 µM.
as §1

[4] = molecular target: T2, STING; test: Western Blot analysis for STING degradation in H1650 cells; conditions: 0.22 µM, 0.67 µM, 2 µM and 6 µM
Method: as §2, §1
Similar protocols were carried out to assess STING degradation in H1650 cells (Figure 1, top panel) and HaCat cells (Figure 1, bottom panel) using Example compounds 14, 16 and 24, except that the seeding density was 150,000 cells/well and 250,000 cells/well for H1650 cells and HaCat cells, respectively.

T2 sequence (Q86WV6 whole entry): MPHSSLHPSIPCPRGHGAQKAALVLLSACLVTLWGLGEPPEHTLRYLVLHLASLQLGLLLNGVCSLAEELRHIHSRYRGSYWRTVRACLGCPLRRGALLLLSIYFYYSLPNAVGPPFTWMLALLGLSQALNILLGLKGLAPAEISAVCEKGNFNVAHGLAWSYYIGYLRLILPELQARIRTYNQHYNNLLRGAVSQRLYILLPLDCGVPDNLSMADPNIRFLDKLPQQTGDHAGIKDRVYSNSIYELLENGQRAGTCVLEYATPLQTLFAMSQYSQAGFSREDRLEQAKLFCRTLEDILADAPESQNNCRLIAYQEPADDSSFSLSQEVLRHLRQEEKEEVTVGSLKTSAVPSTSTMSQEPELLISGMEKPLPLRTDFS

| Compound | STING degradation (Western Blot, Figure 2) [1] | STING phosphorylation (pSTING) [2] | total STING protein levels [2] | STING degradation (Western Blot, Figure 1) [3] | STING degradation (Western Blot, Figure 1) [4] | DC50 ([3]; reference protein beta-actin) [nM] |
| --- | --- | --- | --- | --- | --- | --- |
| CCn1nc(C)cc1C(=O)N=c1n(C)c2cc(C(N)=O)ccc2n1CCC(CCn1c(=NC(=O)c2cc(C)nn2CC)n(C)c2cc(C(N)=O)ccc21)OCC(=O)NCCOCCOCCOCCOCCC(=O)NCCOCCOCCOCCOCCNc1cccc2c1C(=O)N(C1CCC(=O)NC1=O)C2=O (centres unmarked) [Example 16] | dose-dependent STING degradation | no STING phosphorylation was observed | total STING protein levels were observed to decrease | induced STING degradation in all cell lines tested at all concentrations tested; also recorded: showed a more potent effect of induction of STING degradation than Example compound 14 | induced STING degradation in all cell lines tested at all concentrations tested | – |
| CCn1nc(C)cc1C(=O)N=c1n(C)c2cc(C(N)=O)ccc2n1CCC(CCn1c(=NC(=O)c2cc(C)nn2CC)n(C)c2cc(C(N)=O)ccc21)OCC(=O)NCCOCCOCCOCCOCCC(=O)NCCOCCOCCOCCOCC(=O)N[C@H](C(=O)N1C[C@H](O)C[C@H]1C(=O)NCc1ccc(-c2scnc2C)cc1)C(C)(C)C (some centres unmarked) [Example 14] | dose-dependent STING degradation | no STING phosphorylation was observed | total STING protein levels were observed to decrease | inducing visible degradation in H1650 and H596 at the higher concentrations tested | inducing visible degradation in H1650 and H596 at the higher concentrations tested | 1000 to 5000 |
